Values quoted from earlier work as cited in US8926084B2, “Polymerizable ink composition, ink cartridge containing the same, and inkjet printer” (Ricoh Company, Ltd., priority 2012, dated 2015).
Where two headings read alike, the source gives them in different places.

Conditions: material evaluated as no skin sensitization or negative in MSDS has an SI value less than 3, cited from earlier work

| Structure (SMILES) | skin sensitization as mentioned in MSDS (listed as triethylene glycol divinyl ether) | skin sensitization as mentioned in MSDS |
| --- | --- | --- |
| C=COCCOCCOCCOC=C [Triethylene glycol divinylether] | free from skin sensitization | – |
| C=CC(=O)OCC(CC)(COC(=O)C=C)COC(=O)C=C [Trimethylol propane triacrylate (M-309), Trimethylol propane triacrylate] | – | Toagosei Company, Limited, skin sensitization causing |
